As a reminder, the IC50 is the point on the concentration scale where inhibition reaches its midpoint.

One test concerns the target Acetylcholinesterase (Homo sapiens, UniProt P22303). The test is described as follows: Inhibition of AChE (unknown origin) using acetylthiocholine as substrate assessed as reduction of DTNB to TNB preincubated for 20 mins followed by addition of substrate by Ellman's kinetic method. Background: DTNB colorimetry detects thiols as they appear.
Test [1] concerns the target T1, Cholinesterases; ACHE & BCHE (Homo sapiens) (UniProt P06276+P22303). The test is described as follows: Selectivity ratio of IC50 for BChE (unknown origin) to IC50 for AChE (unknown origin) by Ellman's kinetic method.
The target in test [2] is T1, Cholinesterases; ACHE & BCHE (Homo sapiens). The test is described as follows: Selectivity ratio of IC50 for AChE (unknown origin) to IC50 for BChE (unknown origin) by Ellman's kinetic method.
A further test has as its target Cholinesterase (Homo sapiens, UniProt P06276). The test is described as follows: Inhibition of BChE (unknown origin) using acetylthiocholine as substrate assessed as reduction of DTNB to TNB preincubated for 20 mins followed by addition of substrate by Ellman's kinetic method.

Chain of Cholinesterase (P06276 whole entry): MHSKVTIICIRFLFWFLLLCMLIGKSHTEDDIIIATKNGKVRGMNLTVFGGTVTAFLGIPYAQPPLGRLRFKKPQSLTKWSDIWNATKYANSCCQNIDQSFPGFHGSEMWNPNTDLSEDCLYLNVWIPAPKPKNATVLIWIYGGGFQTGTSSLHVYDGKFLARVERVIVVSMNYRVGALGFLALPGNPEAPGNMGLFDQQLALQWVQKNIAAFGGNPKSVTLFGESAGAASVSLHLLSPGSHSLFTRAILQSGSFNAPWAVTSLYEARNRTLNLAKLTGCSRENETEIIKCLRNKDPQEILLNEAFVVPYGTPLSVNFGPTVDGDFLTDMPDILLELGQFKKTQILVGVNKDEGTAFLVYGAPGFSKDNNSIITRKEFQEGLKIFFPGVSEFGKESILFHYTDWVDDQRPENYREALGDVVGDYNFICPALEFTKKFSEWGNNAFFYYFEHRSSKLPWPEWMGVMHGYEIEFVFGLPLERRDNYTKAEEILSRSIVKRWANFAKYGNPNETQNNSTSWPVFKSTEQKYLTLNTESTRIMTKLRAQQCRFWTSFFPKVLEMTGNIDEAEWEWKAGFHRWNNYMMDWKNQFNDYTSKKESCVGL
T1 sequence (P06276 whole entry, looked up): as the sequence (P06276 whole entry) above
T1 sequence (P22303 whole entry, looked up): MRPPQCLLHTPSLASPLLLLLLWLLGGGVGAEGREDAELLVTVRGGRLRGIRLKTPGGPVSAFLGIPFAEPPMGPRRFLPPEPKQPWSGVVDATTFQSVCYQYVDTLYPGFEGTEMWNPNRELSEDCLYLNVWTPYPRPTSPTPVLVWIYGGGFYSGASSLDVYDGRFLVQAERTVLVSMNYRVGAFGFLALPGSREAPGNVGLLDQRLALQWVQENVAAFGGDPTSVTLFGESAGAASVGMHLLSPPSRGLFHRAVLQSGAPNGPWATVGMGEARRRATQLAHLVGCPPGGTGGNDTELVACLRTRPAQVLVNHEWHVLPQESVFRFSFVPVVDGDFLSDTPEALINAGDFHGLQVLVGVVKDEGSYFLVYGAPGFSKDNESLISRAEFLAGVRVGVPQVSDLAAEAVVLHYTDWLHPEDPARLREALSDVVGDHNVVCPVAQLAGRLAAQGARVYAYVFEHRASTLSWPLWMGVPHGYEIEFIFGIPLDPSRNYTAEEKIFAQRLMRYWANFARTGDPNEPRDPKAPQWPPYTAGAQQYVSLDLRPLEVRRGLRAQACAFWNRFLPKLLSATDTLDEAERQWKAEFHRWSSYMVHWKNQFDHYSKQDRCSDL
Chain of Acetylcholinesterase (P22303 whole entry): as the sequence (P22303 whole entry, looked up) above

As to `N#CC1=C(N)N2CCNC2=C([N+](=O)[O-])C12C(=O)Nc1ccccc12` (stereo not drawn), the IC50 on Acetylcholinesterase was determined as 4.85 µM; on Cholinesterase, 13.5 µM. The Ratio IC50 was 2.77 in test [1] and 0.36 in test [2].

Regarding `Cc1ccc2c(c1)C1(C(=O)N2)C(C#N)=C(N)N2CCNC2=C1[N+](=O)[O-]` (stereo not drawn), the IC50 at Acetylcholinesterase is 3.86 µM; on Cholinesterase, 16.2 µM. The Ratio IC50 in test [1] came out at 4.21; in test [2], 0.238.

As to `N#CC1=C(N)N2CCNC2=C([N+](=O)[O-])C12C(=O)c1cccc3cccc2c13` (stereo not drawn), the IC50 at Acetylcholinesterase was determined as 7.08 µM; at Cholinesterase, 23.8 µM. The figures for the Ratio IC50 in test [1] and in test [2] were 3.36 and 0.298, respectively.

On to `CC1(C)CNC2=C([N+](=O)[O-])C3(C(=O)Nc4ccccc43)C(C#N)=C(N)N2C1` (stereo not drawn), for which the figures for the IC50 on Acetylcholinesterase and at Cholinesterase were 1.25 µM and 10.4 µM, respectively. The Ratio IC50 in test [1] was found to be 8.34; in test [2], 0.12.

As for `N#CC1=C(N)N2CCNC2=C([N+](=O)[O-])C12C(=O)Nc1ccc(F)cc12` (stereo not drawn), the results for the IC50 at Acetylcholinesterase and on Cholinesterase were 3.29 µM and 16.8 µM, respectively. Besides, the values for the Ratio IC50 in test [1] and in test [2] were 5.12 and 0.195, respectively.

Regarding `Cc1ccc2c(c1)C1(C(=O)N2)C(C#N)=C(N)N(Cc2ccccc2)C(NCc2ccccc2)=C1[N+](=O)[O-]` (stereo not drawn), the figures for the IC50 at Acetylcholinesterase and on Cholinesterase were 3.71 µM and 13.5 µM, respectively. Also, the figures for the Ratio IC50 in test [1] and in test [2] were 3.64 and 0.275, respectively.

Turning to `Cc1ccc2c(c1)C1(C(=O)N2)C(C#N)=C(N)N2CCCNC2=C1[N+](=O)[O-]` (stereo not drawn), the IC50 turned out to be 0.94 µM at Acetylcholinesterase and 12.3 µM at Cholinesterase. Also, the figures for the Ratio IC50 in test [1] and in test [2] were 13.1 and 0.076, respectively.

For `N#CC1=C(N)N2CCNC2=C([N+](=O)[O-])C12C(=O)c1ccc(Br)c3c(Br)ccc2c13` (stereo not drawn), the IC50 came to 6.37 µM at Acetylcholinesterase and 26 µM at Cholinesterase. Moreover, the Ratio IC50 in test [1] came to 4.09; in test [2], 0.245.

As to `N#CC1=C(N)N2CCCNC2=C([N+](=O)[O-])C12C(=O)Nc1ccc([N+](=O)[O-])cc12` (stereo not drawn), the figures for the half-maximal inhibitory concentration (IC50) at Acetylcholinesterase and on Cholinesterase were 1.15 µM and 12.4 µM, respectively. The Ratio IC50 in test [1] was found to be 10.8; in test [2], 0.092.

Take `CC1(C)CNC2=C([N+](=O)[O-])C3(C(=O)Nc4ccc([N+](=O)[O-])cc43)C(C#N)=C(N)N2C1` (stereo not drawn): the IC50 on Acetylcholinesterase is 1.54 µM; at Cholinesterase it was 11.9 µM. In addition, the figures for the Ratio IC50 in test [1] and in test [2] were 7.71 and 0.13, respectively.

In the case of `CC1(C)CNC2=C([N+](=O)[O-])C3(C(=O)Nc4ccc(F)cc43)C(C#N)=C(N)N2C1` (stereo not drawn), the results for the IC50 at Acetylcholinesterase and at Cholinesterase were 1.07 µM and 15.9 µM, respectively. The Ratio IC50 stood at 14.9 in test [1] and 0.067 in test [2].

With `N#CC1=C(N)N(Cc2ccccc2)C(NCc2ccccc2)=C([N+](=O)[O-])C12C(=O)Nc1ccccc12` (stereo not drawn), the IC50 on Acetylcholinesterase is 3.96 µM; on Cholinesterase, 15.3 µM. For the same molecule, the results for the Ratio IC50 in test [1] and in test [2] were 3.86 and 0.259, respectively.

As to `COc1ccc2c3c1O[C@H]1CC(O)CC[C@@]31CCN(C)C2` (stereo partly drawn), the Ratio IC50 in test [1] worked out at 5.12; in test [2] it was 0.196.

`N#CC1=C(N)N2CCCNC2=C([N+](=O)[O-])C12C(=O)Nc1ccc(F)cc12` (stereo not drawn): the IC50 at Acetylcholinesterase amounted to 0.42 µM; at Cholinesterase, 14.7 µM. For the same molecule, the Ratio IC50 worked out at 35 in test [1] and 0.029 in test [2].

Regarding `CC1(C)CNC2=C([N+](=O)[O-])C3(C(=O)c4cccc5cccc3c45)C(C#N)=C(N)N2C1` (stereo not drawn), the figures for the IC50 on Acetylcholinesterase and at Cholinesterase were 7.71 µM and 25.4 µM, respectively. Also, the Ratio IC50 turned out to be 3.3 in test [1] and 0.303 in test [2].

Turning to `N#CC1=C(N)N(Cc2ccccc2)C(NCc2ccccc2)=C([N+](=O)[O-])C12C(=O)Nc1ccc(F)cc12` (stereo not drawn), the IC50 was found to be 3.54 µM on Acetylcholinesterase and 15.1 µM at Cholinesterase. The results for the Ratio IC50 in test [1] and in test [2] were 4.26 and 0.235, respectively.

On to `N#CC1=C(N)N2CCNC2=C([N+](=O)[O-])C12C(=O)Nc1ccc([N+](=O)[O-])cc12` (stereo not drawn), for which the IC50 was determined as 3.24 µM at Acetylcholinesterase and 14.1 µM on Cholinesterase. Besides, the Ratio IC50 in test [1] was 4.34; in test [2], 0.23.

Regarding `N#CC1=C(N)N2CCCNC2=C([N+](=O)[O-])C12C(=O)c1ccc(Br)c3c(Br)ccc2c13` (stereo not drawn), the IC50 at Acetylcholinesterase turned out to be 6.71 µM; on Cholinesterase it was 24.7 µM. Moreover, the figures for the Ratio IC50 in test [1] and in test [2] were 3.68 and 0.272, respectively.

As to `CC1(C)CNC2=C([N+](=O)[O-])C3(C(=O)c4ccc(Br)c5c(Br)ccc3c45)C(C#N)=C(N)N2C1` (stereo not drawn), the IC50 on Acetylcholinesterase was 5.98 µM; on Cholinesterase, 23.8 µM. For the same molecule, the values for the Ratio IC50 in test [1] and in test [2] were 3.98 and 0.251, respectively.

As to `N#CC1=C(N)N2CCCNC2=C([N+](=O)[O-])C12C(=O)Nc1ccccc12` (stereo not drawn), the IC50 at Acetylcholinesterase came to 1.02 µM; on Cholinesterase it was 8.93 µM. Besides, the Ratio IC50 in test [1] came out at 8.76; in test [2], 0.114.

`N#CC1=C(N)N(Cc2ccccc2)C(NCc2ccccc2)=C([N+](=O)[O-])C12C(=O)c1ccc(Br)c3c(Br)ccc2c13` (stereo not drawn): the IC50 amounted to 6.24 µM at Acetylcholinesterase and 26.6 µM at Cholinesterase. The values for the Ratio IC50 in test [1] and in test [2] were 4.26 and 0.235, respectively.

For `N#CC1=C(N)N(Cc2ccccc2)C(NCc2ccccc2)=C([N+](=O)[O-])C12C(=O)c1cccc3cccc2c13` (stereo not drawn), the IC50 worked out at 5.96 µM at Acetylcholinesterase and 23.8 µM at Cholinesterase. For the same molecule, the figures for the Ratio IC50 in test [1] and in test [2] were 4 and 0.25, respectively.

Regarding `Cc1ccc2c(c1)C1(C(=O)N2)C(C#N)=C(N)N2CC(C)(C)CNC2=C1[N+](=O)[O-]` (stereo not drawn), the IC50 was determined as 1.39 µM at Acetylcholinesterase and 14.7 µM at Cholinesterase. Also, the Ratio IC50 in test [1] is 10.6; in test [2] it was 0.095.

As for `N#CC1=C(N)N2CCCNC2=C([N+](=O)[O-])C12C(=O)c1cccc3cccc2c13` (stereo not drawn), the IC50 was 6.59 µM on Acetylcholinesterase and 26.1 µM at Cholinesterase. In addition, the figures for the Ratio IC50 in test [1] and in test [2] were 3.96 and 0.252, respectively.

Turning to `N#CC1=C(N)N(Cc2ccccc2)C(NCc2ccccc2)=C([N+](=O)[O-])C12C(=O)Nc1ccc([N+](=O)[O-])cc12` (stereo not drawn), the IC50 came to 3.37 µM on Acetylcholinesterase and 15 µM on Cholinesterase. Besides, the values for the Ratio IC50 in test [1] and in test [2] were 4.44 and 0.225, respectively.

Source of the values: ChEMBL document CHEMBL3763108, “Application of PEG-400 as a green biodegradable polymeric medium for the catalyst-free synthesis of spiro-dihydropyridines and their use as acetyl and butyrylcholinesterase inhibitors” (Bioorg Med Chem, 2016).
